Experimental data reported in patent EP4356928A1, “NUCLEOSIDE DIPHOSPHATE OR DIPHOSPHONATE PRODRUGS, OR NUCLEOSIDE ANALOGUE DIPHOSPHATE OR DIPHOSPHONATE PRODRUGS” (Universität Hamburg, priority 2022, dated 2024).
Like-named read-outs stand apart in the source and are kept apart here.

Key:
[1] = system: HIV-2 (ROD); experiment: Inhibition of HIV-2 replication in thymidine kinase-deficient CEM/TK- cell cultures; assay type: cell-based; conditions: for EC50: Human immunodeficiency virus 2, CEM-TK(-), read-out: Antiviral activity EC50 CEM/TK^- HIV-2 (ROD)
Experimental: (§1) All β-phosph(on)ate prodrug compounds were evaluated for their activity to inhibit the replication of HIV in HIV-1- and HIV-2-infected wild-type (CEM/0) cell cultures and in HIV-2-infected mutant thymidine kinase-deficient (CEM/TK^-) cell cultures (see Table 3).
(§2) Antiviral activity was determined in CD4^+ T-lymphocytes: 50% effective concentration (EC50 [µM]).

[2] = system: CD4^+ T-cell (CEM); experiment: Cytotoxicity: inhibition of CD4+ T-cell (CEM) proliferation; conditions: ratio between cell toxicity (CC50) and EC50 CEM/TK-
Experimental: (§3) In addition, a selectivity index (SI) was determined. The selectivity index is the ratio between cell toxicity and […], the ratio between cell toxicity (see Table 4) and EC50 CEM/TK^- (see right column of Table 3).
(§4) Table 4: Cytotoxicity (CC50 [µM]) and selectivity index (SI) of tested prodrug compounds.

[3] = as above; conditions: human
Experimental: as §3, §4

[4] = system: HIV-2 (ROD); experiment: Inhibition of HIV-2 replication in wild-type CEM/0 cell cultures; assay type: cell-based; conditions: Human immunodeficiency virus 2, CCRF-CEM, read-out: Antiviral activity EC50 HIV-2 (ROD)
Experimental: as §1, §2

[5] = system: HIV-1 (HE); experiment: Inhibition of HIV-1 replication in wild-type CEM/0 cell cultures; assay type: cell-based; conditions: Human immunodeficiency virus 1, CCRF-CEM, read-out: Antiviral activity EC50 HIV-1 (HE)
Experimental: as §1, §2

[6] = Stability (hydrolysis half-life) in CEM/0 cell extracts, RP-18 HPLC; assay type: in vitro ADME; conditions: human, read-out: Half-lives CEM T cell extracts (converted)
Experimental: (§5) Stability tests regarding a number of differently substituted β-phosphate and β-phosphonate nucleoside prodrugs were conducted. The chemical and biological stability was tested in different media (phosphate-buffered saline PBS (pH 7.3), pig liver esterase (PLE), CEM cell extracts) and rated by determining the half-live of these compounds. The products of the respective hydrolysis were detected by analytical RP-18 HPLC.
(§6) Results of the hydrolysis experiments in different media (PBS (pH = 7.3), PLE (pig liver esterase) in PBS, or CEM-T cell extracts) are shown in Table 2.
(§7) Table 2: Half-lives (in hours) of the β-phosph(on)ate prodrug compounds of the invention in phosphate buffer saline (PBS, pH 7.3), PLE (100 units/mL pig liver esterase in PBS) and CEM/0 cell extracts. n.d. = not determined.

[7] = Chemical stability (hydrolysis half-life) in phosphate-buffered saline, RP-18 HPLC; assay type: physicochemical; conditions: phosphate buffer saline (PBS, pH 7.3); read-out: Half-lives PBS (converted)
Experimental: as §5, §6, §7

[8] = Stability (hydrolysis half-life) against pig liver esterase in PBS, RP-18 HPLC; assay type: in vitro ADME; conditions: pH 7.3; 100 units/mL pig liver esterase in PBS; read-out: Half-lives PLE (converted)
Experimental: as §5, §6, §7

[9] = CD4+ T-lymphocytes (CEM/0), mean ±SD of n=2-3

Row | Compound | EC50 [1] [nM] | Selectivity index (SI) [2] | CC50 [3] [nM] | EC50 [4, 9] [nM] | EC50 [5, 9] [nM] | EC50 [4] [nM] | half-life [6] [h] | improvement of antiviral activity as compared to the nucleoside analogue d4T ([1]; HIV-2 in CEM/TK- cells, versus d4T) [fold] | CC50 ([3]; cem cells) [nM] | half-life [7] [days] | half-life [8] [h] | EC50 [5] [nM]
1 | Nc1nc(NC2CC2)c2ncn([C@H]3C=C[C@@H](CO)C3)c2n1 [ABC, abacavir, reference compound] | 1980 ± 860 | >50 | > 100000 | 3510 ± 3250 | 9390 ± 2450 | – | – | – | – | – | – | –
2 | Cc1cn([C@H]2C[C@H](N=[N+]=[N-])[C@@H](CO)O2)c(=O)[nH]c1=O [AZT, zidovudine, reference compound] | > 100000 | >1 | > 100000 | – | 14 ± 8.5 | 3.4 ± 2.1 | – | – | – | – | – | –
3 | Cc1cn([C@H]2C[C@H](F)[C@@H](CO)O2)c(=O)[nH]c1=O [FLT, alovudine, reference compound] | > 100000 | – | > 100000 | – | 2.5 ± 2.9 | 4.3 ± 1.7 | – | – | – | – | – | –
4 | CCCCCCCCCCCCCCCCCCOP(=O)(OCCCC)OP(=O)(O)OC[C@@H]1C=C[C@H](n2cc(C)c(=O)[nH]c2=O)O1 (some centres unmarked) [No 16] | 1.1 | – | – | – | – | 4.4 ± 1.3 | > 18 | 45.400 | 41300 | > 41.7 | > 150 | 33 ± 22
5 | CCCCCCCCCCCCCCCCCCOP(=O)(OCC(CC)CCCC)OP(=O)(O)OC[C@@H]1C=C[C@H](n2cc(C)c(=O)[nH]c2=O)O1 (some centres unmarked) [No 17] | 11 ± 0.71 | 4226 | – | – | – | 45 ± 46 | – | – | 46500 | > 41.7 | – | 71 ± 52
6 | CCCCCCCCCCCCCCCCCCP(=O)(OCCCC)OP(=O)(O)OC[C@@H]1C=C[C@H](n2cc(C)c(=O)[nH]c2=O)O1 (some centres unmarked) [No 18] | 2.1 ± 3.4 | 20309 | – | – | – | 16 ± 8.3 | > 40 | – | 42600 | > 125 | > 150 | 31 ± 27
7 | CCCCCCCCCCCCCCCCCCOP(=O)(OCCCC)OP(=O)(O)OC[C@H]1O[C@@H](n2cc(C)c(=O)[nH]c2=O)C[C@@H]1N=[N+]=[N-] (some centres unmarked) [No 19] | 43 ± 48 | 1112 | – | – | – | 25 ± 9 | > 8 | – | 47800 | 42.8 | > 150 | 58 ± 50
8 | CCCCCCCCCCCCCCCCCCP(=O)(OCCCC)OP(=O)(O)OC[C@H]1O[C@@H](n2cc(C)c(=O)[nH]c2=O)C[C@@H]1N=[N+]=[N-] (some centres unmarked) [No 20] | 170 ± 130 | 487 | – | – | – | 20 ± 8 | > 18 | – | 82700 | > 83.3 | > 150 | 87 ± 55
9 | CCCCCCCCCCCCCCCCCCOP(=O)(OCCCC)OP(=O)(O)OC[C@H]1O[C@@H](n2cc(C)c(=O)[nH]c2=O)C[C@@H]1F (some centres unmarked) [No 21] | 17 ± 16 | 3447 | – | – | – | 40 ± 28 | > 10 | – | 58600 ± 19400 | > 41.7 | > 150 | 6.7 ± 2.1
10 | CCCCCCCCCCCCCCCCCCP(=O)(OCCCC)OP(=O)(O)OC[C@H]1O[C@@H](n2cc(C)c(=O)[nH]c2=O)C[C@@H]1F (some centres unmarked) [No 22] | 15 ± 4 | 3620 | – | – | – | 42 ± 13 | – | – | 54300 ± 15200 | > 83.3 | – | 6.3 ± 4.6
11 | CCCCCCCCCCCCCCCCCCOP(=O)(OCCCC)OP(=O)(O)OC[C@H]1O[C@@H](n2ccc(=O)[nH]c2=O)C[C@@H]1F (some centres unmarked) [No 23] | 210 ± 100 | 213 | – | – | – | 150 ± 20 | – | – | 44800 | 33.2 | – | 140 ± 71
12 | CCCCCCCCCCCCCCCCCCP(=O)(OCCCC)OP(=O)(O)OC[C@H]1O[C@@H](n2ccc(=O)[nH]c2=O)C[C@@H]1F (some centres unmarked) [No 24] | 51 ± 69 | 1159 | – | – | – | 76 ± 77 | > 20 | – | 59100 ± 20800 | > 83.3 | > 150 | 57 ± 9
13 | CCCCCCCCCCCCCCCCCCOP(=O)(OCCCC)OP(=O)(O)OC[C@@H]1C=C[C@H](n2cnc3c(NC4CC4)nc(N)nc32)C1 (some centres unmarked) [No 25] | 3.1 ± 2.7 | 3387 | – | – | – | 8.7 ± 0.4 | 6.7 | – | 10500 ± 4600 | 2.33 | 41 | 16 ± 4
14 | CCCCCCCCCCCCCCCCCCP(=O)(OCCCC)OP(=O)(O)OC[C@@H]1C=C[C@H](n2cnc3c(NC4CC4)nc(N)nc32)C1 (some centres unmarked) [No 26] | < 1 | >100000 | – | – | – | 26 ± 18 | > 10 | – | > 100000 | > 41.7 | > 150 | 34 ± 13
15 | Cc1cn([C@H]2C=C[C@@H](CO)O2)c(=O)[nH]c1=O [d4T, stavudine, reference compound] | > 50000 | >1 | > 50000 | – | – | 970 ± 500 | – | – | – | – | – | 330 ± 130
